A short description of experiment [1]: NIH-3T3 fibroblast cytotoxicity, dose response, cytotoxicity control, cell-based, fluorescence, Alamar Blue, secondary assay (AID 2327).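 Note: NIH-3T3 mouse fibroblasts cultured with fluconazole at 8 µg/mL.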 The experiment is classed as functional.
Experiment [2] relates to Streptococcus sp. 'group A'. The experiment in a line: growth inhibition of control SK(-) GAS strain, dose response, counter-screen for streptokinase expression inhibitor project, luminescence, kanamycin, BacTiterGlo, confirmation (AID 1900). The experiment is classed as functional, organism-based.
Experiment [3] can be described thus: inhibitors of intracellular T. cruzi replication, confirmation, NIH3T3 host cells, beta-gal luminescence (AID 2044).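 Note: intracellular parasites grown in NIH/3T3 mouse fibroblasts as host cells; luminescent beta-galactosidase reporter signal from transgenic T. cruzi replicating inside host cells; inhibitors lower the luminescence signal.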 The experiment is classed as functional, cell-based.
A short description of experiment [4]: growth suppression of beta-catenin-knockout colon cells, dose response, cell-based, HCT116, human colon tumor (AID 1045).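 Note: HCT116 colon tumor cells with beta catenin knocked out; cells exposed to compound for 60 hours.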 The class given is functional.
Experiment [5] addresses C-C chemokine receptor type 6 (Homo sapiens, UniProt P51684). Description: CCR6 receptor antagonists, dose response, cell-based, luminescent beta-arrestin readout (AID 504728). The experiment is classed as functional.
The target of a further experiment is Nonstructural protein 1 (Influenza A virus, UniProt Q194T2). The experiment is classed as functional, Influenza A virus (A/California/07/2009(H1N1)).
Chain of Nonstructural protein 1 (Q194T2 whole entry): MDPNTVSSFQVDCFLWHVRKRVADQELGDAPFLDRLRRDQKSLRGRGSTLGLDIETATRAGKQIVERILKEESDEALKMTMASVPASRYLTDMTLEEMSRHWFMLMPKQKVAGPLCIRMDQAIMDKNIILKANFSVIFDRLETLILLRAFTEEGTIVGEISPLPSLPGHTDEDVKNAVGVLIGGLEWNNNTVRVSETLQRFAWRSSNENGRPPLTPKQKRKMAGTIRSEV
The next experiment addresses T1, Hexokinase HKDC1 (Homo sapiens, UniProt Q2TB90).
T1 sequence (Q2TB90 whole entry): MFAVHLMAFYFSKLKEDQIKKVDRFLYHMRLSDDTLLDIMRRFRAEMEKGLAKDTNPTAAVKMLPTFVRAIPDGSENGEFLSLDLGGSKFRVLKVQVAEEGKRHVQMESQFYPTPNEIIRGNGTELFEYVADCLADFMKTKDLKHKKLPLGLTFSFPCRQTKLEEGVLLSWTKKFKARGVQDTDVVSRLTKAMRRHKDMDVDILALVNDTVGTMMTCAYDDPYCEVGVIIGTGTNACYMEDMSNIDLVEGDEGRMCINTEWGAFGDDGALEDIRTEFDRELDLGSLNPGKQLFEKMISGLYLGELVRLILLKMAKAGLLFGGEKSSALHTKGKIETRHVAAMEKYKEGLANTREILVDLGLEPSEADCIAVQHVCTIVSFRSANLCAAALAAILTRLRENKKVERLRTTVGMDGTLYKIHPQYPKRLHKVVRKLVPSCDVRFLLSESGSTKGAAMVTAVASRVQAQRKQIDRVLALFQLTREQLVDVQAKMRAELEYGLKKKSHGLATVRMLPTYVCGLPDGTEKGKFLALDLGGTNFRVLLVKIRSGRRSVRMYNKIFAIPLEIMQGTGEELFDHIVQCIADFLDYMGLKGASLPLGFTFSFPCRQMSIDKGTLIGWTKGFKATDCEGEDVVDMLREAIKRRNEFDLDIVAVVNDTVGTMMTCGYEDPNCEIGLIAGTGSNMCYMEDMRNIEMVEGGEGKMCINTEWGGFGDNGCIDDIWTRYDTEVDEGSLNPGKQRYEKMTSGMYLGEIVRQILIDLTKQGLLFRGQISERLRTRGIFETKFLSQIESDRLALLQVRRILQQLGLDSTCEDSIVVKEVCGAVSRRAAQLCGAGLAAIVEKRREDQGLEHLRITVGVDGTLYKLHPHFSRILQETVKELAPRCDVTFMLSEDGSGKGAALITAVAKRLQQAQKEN
The experiment in a line: HKDC1 hexokinase inhibitors, dose response, biochemical, W721R variant (AID 504729). The class given is functional.

The next experiment is described as follows: cells. The class given is functional.
Another experiment addresses T2, Protein RecA (Mycobacterium tuberculosis, UniProt P9WHJ3).
T2 sequence (P9WHJ3 whole entry): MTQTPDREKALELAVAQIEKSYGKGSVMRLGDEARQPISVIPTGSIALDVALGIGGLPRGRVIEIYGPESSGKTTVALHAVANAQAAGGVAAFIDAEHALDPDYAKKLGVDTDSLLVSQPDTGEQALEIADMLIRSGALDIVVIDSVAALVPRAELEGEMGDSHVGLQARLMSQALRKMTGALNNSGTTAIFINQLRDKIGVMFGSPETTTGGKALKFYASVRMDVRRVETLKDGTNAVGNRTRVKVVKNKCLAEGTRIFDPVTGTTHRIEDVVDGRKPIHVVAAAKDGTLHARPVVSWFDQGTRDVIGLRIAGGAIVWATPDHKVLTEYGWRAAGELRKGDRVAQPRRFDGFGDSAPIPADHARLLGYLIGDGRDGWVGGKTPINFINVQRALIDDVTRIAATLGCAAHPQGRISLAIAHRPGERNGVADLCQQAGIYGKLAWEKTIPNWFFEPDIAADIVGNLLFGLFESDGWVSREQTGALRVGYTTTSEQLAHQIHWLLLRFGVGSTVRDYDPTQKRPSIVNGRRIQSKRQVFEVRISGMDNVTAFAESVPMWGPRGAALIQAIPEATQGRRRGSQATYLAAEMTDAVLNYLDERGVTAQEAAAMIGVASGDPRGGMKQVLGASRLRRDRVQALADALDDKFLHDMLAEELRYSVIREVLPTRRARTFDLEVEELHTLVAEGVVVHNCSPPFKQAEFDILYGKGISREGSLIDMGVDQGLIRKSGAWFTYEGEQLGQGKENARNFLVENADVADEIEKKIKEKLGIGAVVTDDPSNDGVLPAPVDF
Description: Fluorescence Cell-Free Homogeneous Dose Retest to Identify Inhibitors of RecA-Intein Splicing Activity. [Related pubchem assays (depositor defined):AID2097, AID2223, AID489010, AID492950]. The class given is functional.

Activity calls are given as the source filed them.

Chain of C-C chemokine receptor type 6 (P51684 whole entry): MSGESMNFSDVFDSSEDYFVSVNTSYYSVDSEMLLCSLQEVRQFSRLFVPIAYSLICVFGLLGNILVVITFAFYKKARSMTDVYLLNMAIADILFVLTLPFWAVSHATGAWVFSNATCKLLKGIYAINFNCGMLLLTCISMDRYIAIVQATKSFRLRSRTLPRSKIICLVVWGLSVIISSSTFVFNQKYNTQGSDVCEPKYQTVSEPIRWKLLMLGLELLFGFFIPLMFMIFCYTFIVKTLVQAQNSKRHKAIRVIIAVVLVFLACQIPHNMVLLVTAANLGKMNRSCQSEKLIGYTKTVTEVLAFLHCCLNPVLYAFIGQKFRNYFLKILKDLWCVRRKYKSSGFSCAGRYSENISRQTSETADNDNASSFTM

With `O=C1C(Nc2ccccc2)=C/C(=N/S(=O)(=O)c2cccs2)c2ccccc21`, the 50% effective concentration (EC50) was 2.66 µM (inconclusive) in [1]; 2.81 µM (active) in [2]; 1.14 µM (active) in experiment [3]; 4.63 µM (active) in experiment [4]; 0.143 µM (active) at Protein RecA. The IC50 was 34.8 µM (inactive) in experiment [5], 9.04 µM (active) on Nonstructural protein 1, 4.88 µM (active) at Hexokinase HKDC1 and 14.2 µM (active) in “cells”.

The record behind these values is ChEMBL document CHEMBL1201862, “PubChem BioAssay data set” (2004).
